Laboratory results reported in EP0639585A1, “Elastase inhibitor” (BANYU PHARMACEUTICAL CO., LTD., priority 1993, dated 1995).

Target: T1, human leukocyte elastase (Homo sapiens, UniProt P08246)
T1 sequence (P08246 30-267): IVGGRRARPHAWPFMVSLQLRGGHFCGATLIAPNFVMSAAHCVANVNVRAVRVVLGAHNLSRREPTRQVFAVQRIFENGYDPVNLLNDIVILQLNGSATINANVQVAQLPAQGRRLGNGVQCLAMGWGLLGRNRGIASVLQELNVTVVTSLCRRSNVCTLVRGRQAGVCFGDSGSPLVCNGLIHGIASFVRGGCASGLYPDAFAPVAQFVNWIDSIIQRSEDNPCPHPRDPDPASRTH
Test: Elastase inhibition activity (fluorogenic substrate N-methoxy succinyl-L-alanyl-L-alanyl-L-prolyl-L-valine 4-methylcoumaryl-7-amide)
Format: biochemical
Settings: 0.2M tris buffer pH8.5, 1M sodium chloride, 40µM substrate, 37° C, 20 minutes incubation; read-out: IC₅₀
Method: The inhibition activities to human leukocyte elastase were determined as follows: Each 1µl of DMSO solution of the compound and DMSO (for reference) were added to each 250µl of 0.2M tris buffer solutions (pH8.5) containing 40µM N-methoxy succinyl-L-alanyl-L-alanyl-L-prolyl-L-valine 4-methylcoumaryl-7-amide and 1M sodium chloride, and the mixtures were pre-incubated at 37° C for three minutes. Then 50µl of 0.2M tris buffer solutions (pH8.5) containing 0.2µg/ml human leukocyte elastase were added to the mixtures and the mixtures were incubated at 37° C for 20 minutes. Each 1ml of 2M acetic acid aqueous solutions were added to the mixture and the reactions were stopped and then fluorescences of the supernatants were measured and the activities were calculated. As the results, IC₅₀ values were as follows: the compound 6 = 0.78µM, the compound 4 = 6.32µM, the compound 1 = 8.48µM and the compound 5 = 9.94µM.

IC50 [µM]	SMILES
8.48	CCC[C@H](NC(=O)[C@@H]1CCCN1C(=O)[C@H](CC(C)C)NC(C)=O)C(=O)C(=O)Cc1ccccc1 [Compound 1, (4S)-4-(N-acetyl-L-leucyl-L-prolyl)amino-1-phenyl-2,3-heptanedione]
6.32	CCC[C@H](NC(=O)[C@@H]1CCCN1C(=O)[C@H](CC(C)C)NC(=O)OCc1ccccc1)C(=O)C(=O)CC1CCCCC1 [Compound 4, (4S)-4-(N-benzyloxycarbonyl-L-leucyl-L-prolyl)amino-1-cyclohexyl-2,3-heptanedione]
9.94	CCC[C@H](NC(=O)[C@@H]1CCCN1C(=O)[C@H](CC(C)C)NC(=O)OCc1ccccc1)C(=O)C(=O)CCC1CCCCC1 [Compound 5, (5S)-5-(N-benzyloxycarbonyl-L-leucyl-L-prolyl)amino-1-cyclohexyl-3,4-octanedione]
0.78	CCC[C@H](NC(=O)[C@@H]1CCCN1C(=O)[C@H](CC(C)C)NC(=O)OCc1ccccc1)C(=O)C(=O)Cc1ccccc1 [Compound 6, (4S)-4-(N-benzyloxycarbonyl-L-leucyl-L-prolyl)amino-1-phenyl-2,3-heptanedione]
